Experimental data as given in ChEMBL document CHEMBL3112489 (Bioorg Med Chem Lett, 2014).

Legend:
[1] = Inhibition of Legionella pneumophila carbonic anhydrase 2 preincubated for 15 mins by stopped-flow CO2 hydrase assay
[2] = Inhibition of Legionella pneumophila carbonic anhydrase 1 preincubated for 15 mins by stopped-flow CO2 hydrase assay

| Structure (SMILES) | Ki [1] | Ki [2] |
| --- | --- | --- |
| O=[N+]([O-])[O-].[Na+] [SODIUM NITRATE] | 30100 µM | 7600 µM |
| N=C=S [SODIUM ISOTHIOCYANATE] | 880 µM | 520 µM |
| O=P(O)(O)OP(=O)(O)O [SODIUM PYROPHOSPHATE] | 830 µM | 940 µM |
| CCN(CC)C(=S)S [DITIOCARB SODIUM] | 2 µM | 6 µM |
| O=C([O-])O.[Na+] [SODIUM BICARBONATE] | 6600 µM | 3500 µM |
| [F-].[Na+] [SODIUM FLUORIDE] | 770 µM | 910 µM |
| O=C([O-])[O-].[Na+].[Na+] [SODIUM CARBONATE] | 4800 µM | 4700 µM |
| NS(N)(=O)=O [SULFAMIDE] |  | 94 µM |
| N=C=[Se] [SODIUM ISOSELENOCYANATE] | 660 µM | 980 µM |
| O=S([O-])O.[Na+] [SODIUM BISULFITE] | 7200 µM | 6600 µM |
| OB(O)c1ccccc1 [PHENYLBORONIC ACID] | 6 µM | 65 µM |
| O=NO [SODIUM NITRITE] | 5800 µM | 7900 µM |
| [Cl-].[Na+] [SODIUM CHLORIDE] | 810 µM | 790 µM |
| CC(=O)Nc1nnc(S(N)(=O)=O)s1 [ACETAZOLAMIDE] | 0.036 µM | 0.095 µM |
| [I-].[Na+] [SODIUM IODIDE] | 59100 µM | 320 µM |
| [O-][Cl+3]([O-])([O-])O [SODIUM PERCHLORATE] | > 200000 µM | > 200000 µM |
| [N-]=[N+]=[N-] [SODIUM AZIDE] | 450 µM | 77 µM |
| NS(=O)(=O)O [SULFAMATE] | 13 µM | 76 µM |
| O=S(=O)(O)NS(=O)(=O)O [SODIUM IMINODISULFONATE] | 590 µM | 1170 µM |
| O=S(=O)([O-])[O-].[Na+].[Na+] [SODIUM SULFATE ANHYDROUS] | 96500 µM | 77900 µM |
| [Br-].[Na+] [SODIUM BROMIDE] | 8000 µM | 650 µM |
| O=[As](O)(O)c1ccccc1 [PHENYLARSONIC ACID] | 8 µM | 84 µM |
| O=[Te](=O)(O)O [SODIUM TELLURATE] | 290 µM | 240 µM |
| F[B-](F)(F)F.[Na+] [SODIUM TETRAFLUOROBORATE] | > 200000 µM | > 200000 µM |
| S [SODIUM HYDROSULFIDE] | 510 µM | 76 µM |
| S=C(S)S [SODIUM CARBONOTRITHIOATE] | 620 µM | 530 µM |
| O=S(=O)(O)OOS(=O)(=O)O [SODIUM PERSULFATE] | 570 µM | 850 µM |
| O=[Se](=O)(O)O [SODIUM SELENATE] | 660 µM | 7300 µM |
| N#CO [SODIUM CYANATE] | 960 µM | 660 µM |
| O=BOB(O)OB(O)OB=O [SODIUM TETRABORATE] | 550 µM | 600 µM |
